# Entries after “also recorded” stand apart in the source; their conditions may differ. Like-named read-outs stand apart in the source and are kept apart here.
# How the values were obtained:
# [1] = tested on: patients with AdvSM and other myeloid malignancies; assay: Safety: adverse events graded by NCI CTCAE v4.03, phase 1 EXPLORER trial; type: in vivo
# From the text: (§1) The safety population included all enrolled patients and was used to report AEs and PROs (in those who completed the questionnaire). The dose-determining population included all patients in a cohort in part 1 who received ≥21 prescribed avapritinib doses in C1 and completed follow-up through C1, or experienced DLT. The determination of the MTD and RP2D were based on the dose-determining population. […] The AdvSM safety population was also used to report AEs and OS. […] The response-evaluable population was used to report adjudicated response rates and PFS. The PK population comprised all patients with sufficient plasma concentration–time data to reliably estimate the PK parameters of avapritinib.
# Safety assessments included determination of ECOG performance status, clinical laboratory testing, vital signs, electrocardiograms, brain imaging (MRI or CT scan) and physical examinations. AEs were graded according to National Cancer Institute Common Terminology Criteria (v4.03)[40]. Treatment-emergent AEs were defined as any AE occurring between the first dose of avapritinib through 30 d after the last dose of avapritinib, any event that was considered related to the study drug regardless of the start date of the event, or any event that was present at baseline but worsened intensity or was subsequently considered related to the study drug by the investigator.
# [2] = tested on: patients with AdvSM and other myeloid malignancies; assay: 3 + 3 dose escalation: MTD, DLT and RP2D; type: in vivo
# Experimental: This phase 1, open-label study comprised a dose-escalation phase (part 1) and a dose-expansion phase (part 2; Fig. 1). During dose escalation, patients received oral avapritinib at starting doses ranging from 30 to 400 mg QD in continuous 28-d treatment cycles. Dose escalation followed a 3 + 3 design (described below) until the MTD or RP2D was determined. During part 1, intra-patient dose escalation to assess dose levels not exceeding the MTD was allowed. Dose expansion was initially conducted at a starting dose of 300 mg QD; a second expansion cohort at 200 mg QD was subsequently introduced via protocol amendment. Dosing continued until patients experienced unacceptable toxicity, disease progression, death or withdrew consent.
# The 3 + 3 dose-escalation design used cohorts of three to six patients. The first cohort received avapritinib at a starting dose of 30 mg daily. […] Three patients were enrolled initially in each cohort with an additional accrual of three patients if the cohort required expansion due to DLT. Once the escalation cohort was full, up to three additional patients (diagnosis of AdvSM only) could be enrolled into an enrichment cohort at a lower dose. Data from these patients were intended for further exploration of PK, pharmacodynamics and safety in patients with AdvSM.
# as §1
# [3] = Plasma pharmacokinetics, non-compartmental analysis; type: in vivo, human
# Experimental: On D1 and D15 of C1, blood samples for PK analysis were collected before the dose, and 0.5, 1, 2, 4, 8 and 24 h (C1D1 only) after the dose. C2D1 pre-dose concentration was used as the C1D15 24-h concentration for PK analysis. Additional pre-dose samples were collected on D1 of C3 and C4. Avapritinib PK parameters were obtained by non-compartmental analysis of the plasma concentration data versus nominal time using Phoenix WinNonlin© (version 8.0, Certara).
# Plasma concentration–time profiles across dose levels and dose versus systemic exposure (Cmax and AUC) relationships were assessed graphically. Systemic exposure parameters of interest included the arithmetic and geometric mean, Cmax and AUC, and 90% CIs.
smiles,measurement,setting,value
Cn1cc(-c2cc3c(N4CCN(c5ncc([C@@](C)(N)c6ccc(F)cc6)cn5)CC4)ncnn3c2)cn1 [avapritinib],"Arthralgia AE, patients","[1]; human, in vivo",3%
same,"Cognitive effects (memory impairment, cognitive disorder, confusional state and encephalopathy), patients","[1]; human, in vivo",30%
same,"Cognitive effects leading to treatment discontinuation, patients","[1]; human, in vivo",3%
same,Discontinuation due to related AEs,"[1]; human, in vivo",10%
same,Discontinuation due to unrelated AEs,"[1]; human, in vivo",9%
same,"Grade 1 skin hypopigmentation, patients","[1]; human, in vivo",3%
same,"Hair color changes, patients","[1]; human, in vivo",19%
same,"Hypokalemia AE, patients","[1]; human, in vivo",3%
same,"Intracranial bleeding (ICB) in the absence of prior severe thrombocytopenia (platelets <50 × 10^9/l), patients","[1]; human, in vivo",1%
same,"Intracranial bleeding (ICB), patients","[1]; human, in vivo",13%
same,Intracranial bleeding: cerebral hemorrhage,"[1]; human, in vivo",0 n (%)
same,Median time to first dose reduction,"[1]; human, in vivo",8 weeks
same,Patients with at least one dose reduction due to AEs,"[1]; human, in vivo",72%
same,"Peripheral edema AE, patients","[1]; human, in vivo",45%
same,Anaphylactic reaction,[1]; in vivo,one
same,ICB events associated with antecedent severe thrombocytopenia (platelet count <50 × 10^9/l),[1]; in vivo,seven
same,"ICB events, asymptomatic (grade 1)",[1]; in vivo,Five
same,"ICB events, grade 2",[1]; in vivo,two
same,"ICB events, grade 3",[1]; in vivo,one
same,"ICB events, grade 5","[1]; of nine patients with ICB, associated with head trauma",one
same,Deaths due to AEs,[1]; one (ICB) considered treatment related,six
same,Maximum tolerated dose (MTD),[2]; doses of 30–400 mg once daily,No maximum tolerated dose (MTD) was determined; also recorded: not reached
same,Recommended phase 2 dose (RP2D),"[2]; human, in vivo, 28 d",200 mg
same,Recommended phase 2 dose (RP2D) initially selected for part 2,"[2]; human, in vivo, 28 d",300 mg QD
same,Patients with dose-limiting toxicity (DLT),[2]; in vivo,one
same,Time at which steady state was reached,[3]; QD dosing,≤ 15 days
same,half-life,"[3]; human, plasma, oral, Cycle 1 Day 15, read-out: Steady state t½",> 20 h
same,half-life,"[3]; human, plasma, oral, range across doses, read-out: Mean plasma elimination half-life",19.8 to 38.3 h
same,AUC,"[3]; human, plasma, oral, 200 mg QD, C1 D15, CV 54.2%, n = 16, read-out: Steady-state geometric mean AUC0-τ",7340 ng·h/mL
same,Cmax,"[3]; human, plasma, oral, 200 mg QD, C1 D15, CV 62.2%, n = 18, read-out: Steady-state geometric mean maximum plasma concentration (Cmax)",433 ng/mL
same,Tmax,"[3]; human, plasma, single oral doses of 30 to 400 mg, read-out: Time to maximum plasma concentration (Tmax)",2 to 4 h

# Source: publication PMC8674134, “Safety and efficacy of avapritinib in advanced systemic mastocytosis: the phase 1 EXPLORER trial” (Nature Medicine, 2021)
